Ends that are not written are not given here.
Columns and labels:
TGF-β treated PSCs = assay: Cell adhesion competition study (PSC attachment to FN-coated plate, crystal violet); format: cell-based, human; conditions: 50 μmol/L peptide, 30 min pre-incubation 37 °C, 1 h attachment, crystal violet absorbance 600 nm, n = 3
Protocol: To analyze the interaction of PSC and FN, a 96 suspension well plate was coated with 100 μL FN (Advanced Biomatrix, Carlsbad, CA, USA) at 1 μg/mL by overnight incubation at 4 °C. Next, the plate was washed with DPBS (Lonza) and blocked with 5% bovine serum albumin (BSA) in DPBS for at least 1 h at RT. In the meantime, a cell suspension of 200,000 cells/mL of TGF-β treated PSCs in DPBS with 2 mmol/L Ca^2+ and 2 mmol/L Mg^2+ was treated with 50 μmol/L AV3.3 or cyAV3.3 and incubated for 30 min at 37 °C. After washing the plate with DPBS, 100 μL cell suspension was added to each well and then set to rest for 1 h at RT. The plate was then washed with DPBS to remove unattached cells. […] Next, cells were stained with 0.1% (w/v) crystal violet (Sigma) in 25% methanol at RT. After 20 min, cells were washed with water and lysed with 0.5% (w/v) SDS. The degree of cell attachment was measured by the absorbance of the crystal violet at 600 nm using Tecan Infinite M200 plate reader (Tecan, Mannendorf, Switzerland). In other plate, cells were washed with DPBS after fixation and then stained with DAPI. Images were developed using EVOS fluorescence microscope (Thermo Scientific).

[1] = tested on: PANC-1 homospheroids / PANC-1 + PSC heterospheroids; assay: 3D spheroid growth and ATP viability, PANC-1 model; format: cell-based; conditions: PANC-1 homo- and PANC-1 + PSC hetero-spheroids, treated Days 3 and 6, size Days 3, 6, 9, n = 20
Protocol: Homo-spheroids containing hPSCs, PANC-1, or MIA PaCa-2, and hetero-spheroids containing 1:1 combination of hPSCs and PANC-1/MIA PaCa-2 were generated in a 96-well round bottom plates precoated with 1% Pluronic F-127 (Sigma–Aldrich). The self-assembled spheroids were exposed to cyAV3.3, gemcitabine, or both after 3 days and 6 days. Before each treatment, images of spheroids were made using inverted microscope. The diameters of spheroids were measured digitally using ImageJ software. After 9 days, spheroids were moved from the wells to a fresh 96-well plate. CellTiter-Glo 3D reagent (Promega, WI, USA) was added to each well and the luminescence signal was measured after 30 min using Varioskan LUX bioluminescent reader (Thermo Scientific) to assess the viability.

[2] = tested on: KPC (LSL-Kras^G12D/+; LSL-Trp53^R172H/+; Pdx1-Cre) PDAC tumors; assay: Efficacy in genetically engineered KPC mouse PDAC model; format: in vivo, mice; conditions: isolated tumors, n = 6
Protocol: LSL-Kras^G12D/+; LSL-Trp53^R172H/+; Pdx1-Cre (KPC) mice were bred and maintained, on a mixed background, at the CRUK Scotland Institute. Mice were palpated until an abdominal tumor was detected (between 12 and 28 weeks of age) and were then imaged under anesthesia by 3D ultrasound imaging using the VisualSonics Vevo 3100 system with the MX550D transducer (FujiFilm). Following confirmation of PDAC of 3–6 mm, mice of both sexes were enrolled on treatment with cyAV3.3 25 mg/kg i.p. b.i.w. and gemcitabine (100 mg/kg i.p. b.i.w., n = 6). No mice were excluded from the study. Mice treated with gemcitabine alone were used as control group (n = 6). Follow-up imaging to monitor tumor volume was performed weekly until endpoint was reached (moderate symptoms: abdominal distension, loss of body conditioning, jaundice, hunching, or reduced movement). Upon post-mortem, gross pathology was examined and PDAC and organs harvested and fixed in 10% neutral buffered formalin prior to paraffin embedding and sectioning for histological and IHC analysis. Kaplan–Meier and Log-Rank analysis was used for statistical assessment of survival. Analysis of ultrasound images was performed by researchers blinded to treatment arm using VisualSonics VevoLab software (version 3.1.1). In 3D mode, stacked images of the tumor were imported, and tumor border annotated, allowing a 3D volume analysis.

[3] = tested on: PANC-1 + PSC and MIA PaCa-2 + PSC co-injection xenograft tumors; conditions: PANC-1 + PSC and MIA PaCa-2 + PSC co-injection xenografts, i.p. treatment, n = 4 per group per tumor type
Protocol: Six-week-old male CB17 SCID mice (Janvier Labs, Le Genest-Saint-Isle, France) were subcutaneously injected with a 2:1 mixture of 4 × 10^6 human PSCs and 2 × 10^6 PANC-1 or MIA PaCa-2 cells. Tumor growth was assessed twice a week. Tumor-bearing mice (±100 mm^3) were treated with phosphate buffered saline (PBS), cyAV3.3, gemcitabine, or combination of gemcitabine and cyAV3.3 intraperitoneally (i.p). Animals were euthanized, tumors and other organs were harvested and embedded in Cryomatrix (Thermo Scientific) before being snap frozen in cold 2-methyl butane (Thermo Scientific) and stored at −80 °C until analyses. […]
Immunohistochemical staining of mouse tumors
Tumors were cut into 7 μm thick sections and mounted on glass slides using Cryotome FSE (Thermo Scientific), dried, and fixed in acetone for 15 min. Tumor sections were rehydrated in PBS for 10 min then incubated with primary antibody diluted in PBS for 1 hour at RT. Antibodies […]
Next, slides were washed 3 times with PBS before incubation with secondary fluorescence-labeled antibody diluted in PBS. After 30 min of incubation, slides were washed with PBS and shielded with a DAPI -containing mounting medium. Images were made using a Hamamatsu NanoZoomer Digital slide scanner 2.0HT (Hamamatsu Photonics, New Jersey, […]

[4] = tested on: hPSC activated with TGF-β; assay: Inhibition of TGF-β-induced PSC activation (immunocytochemical staining, Western blot); format: cell-based, human; conditions: 5 ng/mL TGF-β, 48 h, peptides at 20 and 50 μmol/L, immunostaining and Western blot
Protocol: secondary peroxidase labeled antibody was added and incubated for 1 h at RT. The HRP signal was developed using standard chemiluminescence kit and the signal was measured.
To evaluate the stability, 20 µmol/L peptide was incubated in 50% human plasma at biological temperature 37 °C for 1, 2, and 24 h. After incubation, plasma was precipitated by adding equal volume of 4% trichloroacetic acid (TCA) and rested on ice for 10 min. As control (or 0h), precipitation was performed immediately after mixing the peptide and plasma. Supernatant was collected after centrifugation at 13,300 × g and assessed using reversed phase high performance liquid chromatography (HPLC) with 5%, 95%, and 99.9% acetonitrile in de-gassed water with 0.1% trifluoroacetic acid as eluents. The remaining peptide was analyzed at a wavelength 280 nm.
Quantitative real-time PCR
To examine the effect of peptides on the gene expression of hPSC activation markers, cells were seeded into a 12 well plate at a seeding density of 50,000 cells/well. After overnight incubation, cells were starved for 24 h, then treated with human recombinant 5 ng/mL TGF-β (Peprotech, Hamburg, Germany) and […] peptide. After 24 h of the incubation, cells were lysed and total RNA was isolated using GenElute™ Mammalian Total RNA Miniprep Kit (Sigma–Aldrich) and the RNA concentration was measured using a NanoDrop® ND-1000 Spectrophotometer (Thermo Scientific, Waltham, USA). cDNA was synthesized with iScript™ cDNA Synthesis Kit (BioRad, Veenendaal, The Netherlands), and 10 ng cDNA was used for each PCR reaction. […] Quantitative real time PCR was performed with 2× SensiMix SYBR and Fluoroscein Kit (Bioline GmbH, Luckenwalde, Germany) using a BioRad CFX384 Real-Time PCR detection system (BioRad). […]
To evaluate the effect of peptides on the protein expression of hPSC activation markers, hPSCs were seeded into a 12 well plate at seeding density 50,000 cells/well. […] Proteins were detected with […]
medium. […] Images were analyzed using […]
secondary fluorescence-labeled antibody diluted in PBS. […]

hPSCs = assay: Cell viability, Alamar blue assay; format: cell-based, human
Protocol: We investigated the inhibitory effect of both cyclic and linear peptides on PSC activation and signaling. To achieve this, PSCs were seeded and treated with TGF-β and peptides for 48 h (protein expression) or 24 h (gene expression). We also tested the effect of the peptide on the cell viability using Alamar blue assay and found no toxicity (Supporting Information Fig. S3A). […] To quantitate that, we performed Western blot analysis and confirmed the observed effect via immunostaining (Fig. 2B and C; Fig. S3B). The details of the antibodies used can be found in Supporting Information Table S2. […] After obtaining these effects, we focused on cyAV3.3 and examined its inhibitory effects on TGF-β1-stimulated PSCs using qPCR and an RT[2] profiler PCR array for ECM and adhesion receptors (Fig. 2D). […] The details of primers for all genes can be found in Supporting Information Table S3. […] In contrast, cyAV3.3 induced the gene expression of ECM-degrading proteins such as MMP10 and ADAMTS-13 (Supporting Information Fig. S4).

## cyclo(GYYTRRAYK) [scr, scrambled cyclic peptide control, reference compound]
TGF-β treated PSCs
  blocking of the binding of PSC to FN: did not show any blocking

## Nc1ccn([C@@H]2O[C@H](CO)[C@@H](O)C2(F)F)c(=O)n1 [gemcitabine]
[1]
  spheroid growth: reduced the growth of both homo- and hetero-spheroids
[2]
  collagen deposition (Sirius red) in KPC tumors: significantly induced collagen deposition
[3]
  reduction of tumor size / tumor growth: 60%

## RYYRATY [AV3.3]
[4]
  inhibition of PSC activation by TGF-β1 (expression of α-SMA and collagen-1): inhibited the activation of PSCs
hPSCs
  effect on cell viability: no toxicity

— paper PMC12828148, “Engineered cyclic peptide targeting ITGA5 disrupts tumor–stroma interaction to overcome desmoplasia and resistance in pancreatic ductal adenocarcinoma” (Acta Pharmaceutica Sinica. B, 2025)
